EC50 data for 24 compounds are collected here from US11498903B2 (BRISTOL-MYERS SQUIBB COMPANY, priority 2017, dated 2022).

Molecules are shown by their SMILES. pEC50: −log10 of the molar value. Where two headings read alike, the source gives them in different places.

As usually defined, the pEC50 is −log10 of the EC50, conventionally taken in molar units.

The assay concerns the target T1, human APJ receptor (Homo sapiens, UniProt P35414).
T1 construct: expressed in transfected cells
T1 sequence (P35414 1-380): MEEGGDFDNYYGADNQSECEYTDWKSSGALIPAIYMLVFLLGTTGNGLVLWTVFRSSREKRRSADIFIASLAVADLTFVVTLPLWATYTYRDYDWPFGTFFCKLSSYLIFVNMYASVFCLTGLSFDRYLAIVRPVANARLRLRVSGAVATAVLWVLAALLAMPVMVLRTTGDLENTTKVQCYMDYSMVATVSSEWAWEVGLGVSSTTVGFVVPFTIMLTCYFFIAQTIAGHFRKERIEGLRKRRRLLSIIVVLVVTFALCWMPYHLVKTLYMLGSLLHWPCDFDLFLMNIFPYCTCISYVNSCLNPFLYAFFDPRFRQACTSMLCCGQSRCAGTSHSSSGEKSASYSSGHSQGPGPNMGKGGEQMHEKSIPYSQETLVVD
The assay is described as follows: Intracellular cAMP accumulation assay (APJ hcAMP, HTRF). In kind it is cell-based. The settings on record: HEK293 cells stably expressing human APJ receptor. Summed up:
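Inhibition of 2 μM forskolin-driven cAMP ([…] present) measured by HTRF in 5,000 HEK293 cells/well stably expressing human APJ, 30 min, room temperature. EC50 came from a variable-slope sigmoidal fit; Ymax was relative to (Pyr1)apelin-13 set at 100%.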
Background: cAMP levels reflect the balance of adenylyl cyclase and phosphodiesterase activity.

The mark [1] stands for this setting: Table 1, inhibition of forskolin-mediated cAMP production, read-out: APJ hcAMP EC50.
[2] abbreviates: Table 2, read-out: APJ cAMP Human EC50.

Take `CCC[C@@H](NC(=O)c1ccc(-c2cc(Cl)ccc2-c2nc3ccccc3[nH]2)c(C(=O)NOC)c1)c1ccccc1` [Example 41, 2′-(1H-1,3-benzodiazol-2-yl)-5′-chloro-N2-methoxy-N4-[(1R)-1-phenylbutyl]-[1,1′-biphenyl]-2,4-dicarboxamide]: the pEC50 was 7.00 to 8.00 under setting [1] and 7.00 to 8.00 under setting [2].
With `CCC[C@@H](NC(=O)c1ccc(-c2cc(Cl)ccc2-c2nc3ccccc3[nH]2)c(C(=O)NO)c1)c1ccccc1` [Example 42, 2′-(1H-1,3-benzodiazol-2-yl)-5′-chloro-N2-hydroxy-N4-[(1R)-1-phenylbutyl]-[1,1′-biphenyl]-2,4-dicarboxamide], the pEC50 by setting is: under setting [1], 7.00 to 8.00; under setting [2], 7.00 to 8.00.
Take `CCC[C@@H](NC(=O)c1ccc(-c2cc(Cl)ccc2-c2nc3ccccc3[nH]2)c(C(=O)OC)c1)c1ccccc1` [Example 43, methyl 2′-(1H-1,3-benzodiazol-2-yl)-5′-chloro-4-{[(1R)-1-phenylbutyl]carbamoyl}-[1,1′-biphenyl]-2-carboxylate]: the pEC50 is, setting by setting: under setting [1], 6.30 to 7.00; under setting [2], 6.30 to 7.00.
For the compound `CCC[C@@H](NC(=O)c1ccc(-c2cc(Cl)ccc2-c2nc3ccccc3[nH]2)c(C(=O)NS(C)(=O)=O)c1)c1ccccc1` [Example 44, 2′-(1H-1,3-benzodiazol-2-yl)-5′-chloro-N2-methanesulfonyl-N4-[(1R)-1-phenylbutyl]-[1,1′-biphenyl]-2,4-dicarboxamide], the pEC50 is 7.00 to 8.00 under setting [1] and 7.00 to 8.00 under setting [2].
Turning to `CCC[C@@H](NC(=O)c1ccc(-c2cc(Cl)ccc2-c2nc3ccccc3[nH]2)c(C(=O)NS(=O)(=O)c2ccc(Cl)cc2)c1)c1ccccc1` [Example 45, 2′-(1H-1,3-benzodiazol-2-yl)-5′-chloro-N2-(4-chlorobenzenesulfonyl)-N4-[(1R)-1-phenylbutyl]-[1,1′-biphenyl]-2,4-dicarboxamide], the pEC50 by setting is: under setting [1], 6.30 to 7.00; under setting [2], 6.30 to 7.00.
In the case of `CCC[C@@H](NC(=O)c1ccc(-c2cc(Cl)ccc2-c2nc3cc(Cl)ccc3[nH]2)c(C(=O)O)c1)c1ccccc1` [Example 47, 5′-chloro-2′-(5-chloro-1H-1,3-benzodiazol-2-yl)-4-{[(1R)-1-phenylbutyl]carbamoyl}-[1,1′-biphenyl]-2-carboxylicacid], the pEC50 by setting is: under setting [1], greater than 8.00; under setting [2], greater than 8.00.
As for `CCC[C@@H](NC(=O)c1ccc(-c2cc(Cl)ccc2-c2nc3cc(C(C)C)ccc3[nH]2)c(C(=O)O)c1)c1ccccc1` [Example 48, 5′-chloro-4-{[(1R)-1-phenylbutyl]carbamoyl}-2′-[5-(propan-2-yl)-1H-1,3-benzodiazol-2-yl]-[1,1′-biphenyl]-2-carboxylic acid], the pEC50 by setting is: under setting [1], greater than 8.00; under setting [2], greater than 8.00.
Regarding `CCC[C@@H](NC(=O)c1ccc(-c2cc(Cl)ccc2-c2nc3cccc(C)c3[nH]2)c(C(=O)O)c1)c1ccccc1` [Example 49, 5′-chloro-2,-(4-methyl-1H-1,3-benzodiazol-2-yl)-4-{[(1R)-1-phenylbutyl]carbamoyl}-[1,1′-biphenyl]-2-carboxylic acid], the pEC50 was 7.00 to 8.00 under setting [1] and 7.00 to 8.00 under setting [2].
As to `CCC[C@@H](NC(=O)c1ccc(-c2cc(Cl)ccc2-c2nc(C)c(C)[nH]2)c(C(=O)O)c1)c1ccccc1` [Example 50, 5′-chloro-2′-(4,5-dimethyl-1H-imidazol-2-yl)-4-{[(1R)-1-phenylbutyl]carbamoyl}-[1,1′-biphenyl]-2-carboxylic acid], the pEC50 was 7.00 to 8.00 under setting [1] and 7.00 to 8.00 under setting [2].
On to `CCC[C@@H](NC(=O)c1ccc(-c2cc(C(F)(F)F)ccc2-c2nc3ccccc3[nH]2)c(C(=O)O)c1)c1ccccc1` [Example 51, 2′-(1H-1,3-benzodiazol-2-yl)-4-{[(1R)-1-phenylbutyl]carbamoyl}-5′-(trifluoromethyl)-[1,1′-biphenyl]-2-carboxylic acid], for which the pEC50 under setting [1] was greater than 8.00 and the negative-log EC50 (pEC50) under setting [2] is greater than 8.00.
Regarding `CCC[C@@H](NC(=O)c1ccc(-c2ccccc2-c2nc3ccccc3[nH]2)c(C(=O)O)c1)c1ccccc1` [Example 52, 2′-(1H-1,3-benzodiazol-2-yl)-4-{[(1R)-1-phenylbutyl]carbamoyl}-[1,1′-biphenyl]-2-carboxylic acid], the pEC50 was greater than 8.00 under setting [1] and greater than 8.00 under setting [2].
For `CCC[C@@H](NC(=O)c1ccc(-c2cc(OC)ccc2-c2nc3ccccc3[nH]2)c(C(=O)O)c1)c1ccccc1` [Example 53, 2′-(1H-1,3-benzodiazol-2-yl)-5′-methoxy-4-{[(1R)-1-phenylbutyl]carbamoyl}-[1,1′-biphenyl]-2-carboxylic acid], the pEC50 is, setting by setting: under setting [1], greater than 8.00; under setting [2], greater than 8.00.
With `CCC[C@@H](NC(=O)c1ccc(-c2ccc(Cl)cc2-c2nc3ccccc3[nH]2)c(C(=O)O)c1)c1ccccc1` [Example 54, 2′-(1H-1,3-benzodiazol-2-yl)-4′-chloro-4-{[(1R)-1-phenylbutyl]carbamoyl}-[1,1′-biphenyl]-2-carboxylic acid], the pEC50 by setting is: under setting [1], 7.00 to 8.00; under setting [2], 7.00 to 8.00.
`CCC[C@@H](NC(=O)c1ccc(-c2cccc(F)c2-c2nc3ccccc3[nH]2)c(C(=O)O)c1)c1ccccc1` [Example 55, 2′-(1H-1,3-benzodiazol-2-yl)-3′-fluoro-4-{[(1R)-1-phenylbutyl]carbamoyl}-[1,1′-biphenyl]-2-carboxylic acid]: the pEC50 by setting is: under setting [1], 6.30 to 7.00; under setting [2], 6.30 to 7.00.
Regarding `CCC[C@@H](NC(=O)c1ccc(-c2cc(C(F)(F)F)ccc2-c2nc3cc(OC)ccc3[nH]2)c(C(=O)O)c1)c1ccccc1` [Example 56, 2′-(5-methoxy-1H-1,3-benzodiazol-2-yl)-4-{[(1R)-1-phenylbutyl]carbamoyl}-5′-(trifluoromethyl)-[1,1′-biphenyl]-2-carboxylic acid], the pEC50 was greater than 8.00 under setting [1] and greater than 8.00 under setting [2].
On to `CCC[C@@H](NC(=O)c1ccc(-c2ccc(Cl)cc2-c2nc3cc(OC)ccc3[nH]2)c(C(=O)O)c1)c1ccccc1` [Example 57, 4′-chloro-2′-(5-methoxy-1H-1,3-benzodiazol-2-yl)-4-{[(1R)-1-phenylbutyl]carbamoyl}-[1,1′-biphenyl]-2-carboxylic acid], for which the pEC50 under setting [1] is greater than 8.00 and the negative logarithm of the EC50 (pEC50) under setting [2] was greater than 8.00.
Consider `CCC[C@@H](NC(=O)c1ccc(-c2ccccc2-c2nc3cc(OC)ccc3[nH]2)c(C(=O)O)c1)c1ccccc1` [Example 58, 2′-(5-methoxy-1H-1,3-benzodiazol-2-yl)-4-{[(1R)-1-phenylbutyl]carbamoyl}-[1,1′-biphenyl]-2-carboxylic acid], for which the pEC50 by setting is: under setting [1], greater than 8.00; under setting [2], greater than 8.00.
Take `CCC[C@@H](NC(=O)c1ccc(-c2cc(OC)ccc2-c2nc3cc(OC)ccc3[nH]2)c(C(=O)O)c1)c1ccccc1` [Example 59, 5′-methoxy-2′-(5-methoxy-1H-1,3-benzodiazol-2-yl)-4-{[(1R)-1-phenylbutyl]carbamoyl}-[1,1′-biphenyl]-2-carboxylic acid]: the pEC50 is greater than 8.00 under setting [1] and greater than 8.00 under setting [2].
Consider `CCC[C@@H](NC(=O)c1ccc(-c2cc(C(F)(F)F)ccc2-c2nc3cc(C(C)(C)C)ccc3[nH]2)c(C(=O)O)c1)c1ccccc1` [Example 60, 2′-(5-tert-butyl-1H-1,3-benzodiazol-2-yl)-4-{[(1R)-1-phenylbutyl]carbamoyl}-5′-(trifluoromethyl)-[1,1′-biphenyl]-2-carboxylic acid], for which the pEC50 by setting is: under setting [1], greater than 8.00; under setting [2], greater than 8.00.
As to `CCC[C@@H](NC(=O)c1ccc(-c2cc(OC)ccc2-c2nc3cc(C(C)(C)C)ccc3[nH]2)c(C(=O)O)c1)c1ccccc1` [Example 61, 2′-(5-tert-butyl-1H-1,3-benzodiazol-2-yl)-5′-methoxy-4-{[(1R)-1-phenylbutyl]carbamoyl}-[1,1′-biphenyl]-2-carboxylic acid], the negative-log EC50 (pEC50) was greater than 8.00 under setting [1] and greater than 8.00 under setting [2].
Take `CCC[C@@H](NC(=O)c1ccc(-c2ccccc2-c2nc3cc(C(C)(C)C)ccc3[nH]2)c(C(=O)O)c1)c1ccccc1` [Example 62, 2′-(5-tert-butyl-1H-1,3-benzodiazol-2-yl)-4-{[(1R)-1-phenylbutyl]carbamoyl}-[1,1′-biphenyl]-2-carboxylic acid]: the negative logarithm of the EC50 (pEC50) is, setting by setting: under setting [1], 7.00 to 8.00; under setting [2], greater than 8.00.
In the same order, the values of `CCC[C@@H](NC(=O)c1ccc(-c2ccc(Cl)cc2-c2nc3cc(C(C)(C)C)ccc3[nH]2)c(C(=O)O)c1)c1ccccc1` [Example 63, 2′-(5-tert-butyl-1H-1,3-benzodiazol-2-yl)-4′-chloro-4-{[(1R)-1-phenylbutyl]carbamoyl}-[1,1′-biphenyl]-2-carboxylic acid] are 7.00 to 8.00 and 7.00 to 8.00.
In the same order, the values of `COC[C@@H](NC(=O)c1ccc(-c2ccccc2-c2nc3cc(OC)ccc3[nH]2)c(C(=O)O)c1)c1ccccc1` [Example 64, 4-{[(1S)-2-methoxy-1-phenylethyl]carbamoyl}-2′-(5-methoxy-1H-1,3-benzodiazol-2-yl)-[1,1′-biphenyl]-2-carboxylic acid] are greater than 8.00 and greater than 8.00.
In the same order, the values of `COC[C@@H](NC(=O)c1ccc(-c2ccccc2-c2nc3cc(C(C)(C)C)ccc3[nH]2)c(C(=O)O)c1)c1ccccc1` [Example 65, 2′-(5-tert-butyl-1H-1.3-benzodiazol-2-yl)-4-{[(1S)-2-methoxy-1-phenylethyl]carbamoyl}-[1,1′-biphenyl]-2-carboxylic acid] are greater than 8.00 and greater than 8.00.
